Source: US8354398B2, “Substituted isoxazole compounds” (Bristol-Myers Squibb Company, priority 2009, dated 2013)

Legend:
[1] = biological target: S1P1 (Homo sapiens, UniProt P21453); test: Method A: Receptor [35S] GTPγS Binding Assay, membranes from S1P1/CHO cells; format: biochemical; set-up: expressed in transfected cells; host or cells: S1P1/CHO cells
In short: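 Membranes ([…]) incubated 45 min at room temperature with 3-fold compound dilutions and 0.2 nM final [35S]GTPγS in HEPES pH 7.5 buffer containing 10 μM GDP, MgCl2, EGTA, DTT, BSA and saponin. Bound label collected by filtration and scintillation counting; EC50 taken at 50% of each compound's Ymax.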

[2] = test system: circulating lymphocytes; test: Blood Lymphocyte Reduction Assay (BLR) in rats; format: in vivo; conditions: Lewis rats, oral, vs vehicle group
Protocol: Lewis rats or BALB/c mice were dosed orally with test article (as a solution or suspension in the vehicle) or vehicle alone (polyethylene glycol 300, “PEG300”). Blood was drawn at 4 hr and 24 h by retro-orbital bleeding. Blood lymphocyte counts were determined on an ADVIA® 120 Hematology Analyzer (Siemens Healthcare Diagnostics). The results were measured as a reduction in the percentage of circulating lymphocytes as compared to the vehicle treated group at the 4 hr and 24 hr measurement. The results represent the average results of all animals within each treatment group (n=3-4).
Examples 1 and 2 were tested in the Blood Lymphocyte Reduction assay (BLR) described hereinabove and the results are shown in Table D for rats and Table E for mice.

[3] = test system: experimental autoimmune encephalomyelitis (clinical score); test: Mouse Experimental Autoimmune Encephalomyelitis Assay (EAE); format: in vivo, C57BL/6 mice; conditions: for Clinical Score on day 21, Mean: C57BL/6 female mice, vehicle mean 2.79
[4] = test system: adjuvant induced arthritis (paw swelling); test: Rat Adjuvant Induced Arthritis Assay (AA); format: in vivo, Lewis rats; conditions: for Paw Swelling (mL) on Day 20, Mean: male Lewis rats, vehicle mean 1.53
Protocol: Male Lewis rats (150-175 g; Harlan, n=8 treatment group) were immunized at the base of the tail with […] of 10 mg/ml freshly ground Mycobacterium butyricum (Difco Laboratories) in incomplete Freund's adjuvant (sigma) Animals were dosed once daily with the test article (as a solution or suspension in the vehicle) or vehicle alone (polyethylene glycol 300, “PEG300”) starting from the day of immunization. The volumes of their hind paws were measured in a water displacement plethysmometer (Ugo Basile, Italy). The baseline paw measurements were taken before onset of the disease (between day 7 to day 10). The paw measurements were then taken three times a week until the end of the study on day 20. All procedures involving animals were reviewed and approved by the Institutional Animal Care Use Committee.

Sequence of S1P1 (P21453 whole entry): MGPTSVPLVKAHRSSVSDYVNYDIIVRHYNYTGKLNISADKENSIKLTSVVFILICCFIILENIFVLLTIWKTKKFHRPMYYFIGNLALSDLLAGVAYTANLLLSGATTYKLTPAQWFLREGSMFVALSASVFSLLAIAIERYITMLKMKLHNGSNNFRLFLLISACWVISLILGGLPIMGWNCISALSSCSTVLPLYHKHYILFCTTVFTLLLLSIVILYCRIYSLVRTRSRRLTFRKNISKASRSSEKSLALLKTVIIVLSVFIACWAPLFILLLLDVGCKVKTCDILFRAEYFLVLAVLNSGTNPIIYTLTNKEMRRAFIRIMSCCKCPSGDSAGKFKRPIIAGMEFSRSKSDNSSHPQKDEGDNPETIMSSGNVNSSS

For O=C(O)C1CN(Cc2ccc(-c3noc(-c4onc(-c5ccccc5)c4C(F)(F)F)n3)cc2)C1 [Example 1, 1-(4-(5-(3-Phenyl-4-(trifluoromethyl)isoxazol-5-yl)-1,2,4-oxadiazol-3-yl)benzyl)azetidine-3-carboxylic acid], the EC50 ([1]; Method A, S1P1/CHO cell membranes) was 0.68 nM, the “GTPγS S1P3/S1P1 (Method A)” value ([1]; ratio of GTPγS S1P3 EC50 to GTPγS S1P1 EC50, Method A) was 1,400 and the “% reduction in lymphocytes at 4 hr.” value ([2]; 0.03 mg/kg) was 75%. The “% reduction in lymphocytes at 24 hr.” value ([2]; 0.03 mg/kg) was 45%, the “% reduction in lymphocytes at 4 hr.” value ([2]; 0.3 mg/kg) was 82% and the “% reduction in lymphocytes at 24 hr.” value ([2]; 0.3 mg/kg) was 73%. For the same molecule, the “Clinical Score on day 21, Mean” value ([3]; 0.02 mg/kg once daily from 1 day after immunization) was 1.75, the “Clinical Score on day 21, Mean” value ([3]; 0.2 mg/kg once daily from 1 day after immunization) was 1.13 and the “Clinical Score on day 21, Mean” value ([3]; 2.0 mg/kg once daily from 1 day after immunization) was 1.15. The “disease progression as determined by the clinical scores” value ([3]; C57Bl/6 mice, prophylactic oral dosing) was “inhibits disease progression”, the “disease progression as measured by paw swelling” value ([4]; Lewis rat, prophylactic oral dosing) was “inhibits disease progression” and the “Paw Swelling (mL) on Day 20, Mean” value ([4]; 0.03 mg/kg once daily from day of immunization) was 1.39 mL. For the same molecule, the “Paw Swelling (mL) on Day 20, Mean” value ([4]; 0.1 mg/kg once daily from day of immunization) was 0.55 mL, the “Paw Swelling (mL) on Day 20, Mean” value ([4]; 0.5 mg/kg once daily from day of immunization) was 0.23 mL and the “Paw Swelling (mL) on Day 20, Mean” value ([4]; 3.0 mg/kg once daily from day of immunization) was 0.29 mL.
